In patent US7288273B1, “Gallotannins and ellagitannins as regulators of cytokine release” (The Penn State Research Foundation, priority 2000, dated 2007):

System: TNF-α secretion from h-PBMC's
Test: TNF-α release from h-PBMC's, ELISA
Type: cell-based, human
Conditions: 24 hours, ± SD
Protocol: Authentic samples of agrimoniin and coriariin A were supplied by Professor Yoshida (Okayama University, Japan). Dimeric gallotannin (analog of coriariin A) and β-D-PGG were synthesized as described. LPS (E. coli 055:B5 phenol extract, MW range 50-100 KD). Ficoll-Histopaque (ρ=1.077 g/mL), Fetal Bovine Serum, sterile, hybridoma tested (FCS), gentamicin 10 mg/mL. L-glutamine, 200 mM. Dextran B-512 Leuconostoc Av M.W. 580000, and Trypan Blue stain were purchased from Sigma. Hanks Buffer Saline Solution 1×, with phenol red, mediatech (HBSS) and RPMI 1640 1×, mediatech were purchased from Fisher Scientific, Human IL-1β and TNF-α Enzyme Linked ImmunoSorbent Assay (ELISA) kits were purchased from R and D Systems, Minneapolis, Minn. Fresh heparinized blood was obtained from health human subjects (ages 20-34).
Dose-Response Data: General Procedure. H-PBMC's were isolated by reported procedures (10. 18). The cells counted and the viability was determined by Trypan Blue exclusion (typically, viability exceeded 95%). The concentration of the cells in the 0.5 mL wells was adjusted to 1×10^6 cells/well by diluting with the required amount of RPMI.
The appropriate amount of a tannin (or LPS) stock solution in HBSS was added to each well to furnish the concentration values reported in the Figures. […] The culture plates were incubated in a 5% CO2, 37° C. humidified incubator for the indicated time. At the end of the time interval, 450 μL of the culture supernatant from each well was harvested, after centrifugation at 400 g, 25° C., 10 min. with brake, and stored at −78° C. pending ELISA analysis for the cytokine(s). The ELISA assays were conducted per the manufacturer's instructions using standard calibration curves to calculate cytokine concentration from observed absorbance readings. The cytokine values reported are averages of three runs±SE.
The dimeric antitumor ellagitannins coriariin A and agrimoniin, the monomeric gallotannin β-D-pentagalloylglucose (β-D-PGG) and the dimeric gallotannin of this invention were all examined in this study. The dimeric gallotannin is an analog of coriariin A and is identical to the parent ellagitannin except that the galloyl rings at O(4) and O(6) are not joined in a hexahydroxydiphenoyl (HHDP) linkage. h-PBMC's were incubated with the compound under investigation for the indicated length of time and the amounts of both IL-1β and, independently, TNF-α, present in the culture supernatants was determined using commercially available ELISA kits. In each case, LPS was used as a positive control while untreated cells were reserved as negative controls.
In the first study, the induction of TNF-α secretion from h-PBMC's in the presence of each compound 17c-21c was measured. The h-PBMC's were incubated with each compound for 24 hours. The TNF-α levels in the cell culture supernatant were assayed by Enzyme Linked ImmunoSorbant Assay (ELISA). The data point for each assay represent the mean of triplicate measurements. […] (See FIG. 11).

Structure (SMILES) | TNF-α secreted in the presence of 17c-21c (compound 0.6 μM) [pg/mL] | TNF-α secreted in the presence of 17c-21c (compound 2.8 μM) [pg/mL] | TNF-α secreted in the presence of 17c-21c (compound 5.6 μM) [pg/mL] | TNF-α secreted in the presence of 17c-21c (compound 11.2 μM) [pg/mL] | TNF-α secreted in the presence of 17c-21c (compound 16.8 μM) [pg/mL] | TNF-α secreted in the presence of 17c-21c (compound 22.3 μM) [pg/mL] | TNF-α secreted in the presence of 17c-21c (compound 27.9 μM) [pg/mL] | TNF-α secreted in the presence of 17c-21c (compound 2.9 μM) [pg/mL] | TNF-α secreted in the presence of 17c-21c (compound 5.9 μM) [pg/mL] | TNF-α secreted in the presence of 17c-21c (compound 11.8 μM) [pg/mL] | TNF-α secreted in the presence of 17c-21c (compound 17.6 μM) [pg/mL] | TNF-α secreted in the presence of 17c-21c (compound 23.5 μM) [pg/mL] | TNF-α secreted in the presence of 17c-21c (compound 29.4 μM) [pg/mL]
O=C(CCCCCC(=O)OC1O[C@H](COC(=O)c2cc(O)c(O)c(O)c2)[C@@H](OC(=O)c2cc(O)c(O)c(O)c2)[C@H](OC(=O)c2cc(O)c(O)c(O)c2)[C@H]1OC(=O)c1cc(O)c(O)c(O)c1)OC1O[C@H](COC(=O)c2cc(O)c(O)c(O)c2)[C@@H](OC(=O)c2cc(O)c(O)c(O)c2)[C@H](OC(=O)c2cc(O)c(O)c(O)c2)[C@H]1OC(=O)c1cc(O)c(O)c(O)c1 (mixture of isomers) [Compound 20c, 1,1′-O-2,2′,3,3′,4,4′,6,6′-Tetrakis(3,4,5-trihyroxybenzoyl)-β,β′-D,D′-glucopyranosylpimelate] | 0 | 0 | 0 | 0 | 0 | 0 | 0 |  |  |  |  |  | 
O=C(OC[C@H]1O[C@@H](OC(=O)c2cccc(C(=O)O[C@@H]3O[C@H](COC(=O)c4cc(O)c(O)c(O)c4)[C@@H](OC(=O)c4cc(O)c(O)c(O)c4)[C@H](OC(=O)c4cc(O)c(O)c(O)c4)[C@H]3OC(=O)c3cc(O)c(O)c(O)c3)c2)[C@H](OC(=O)c2cc(O)c(O)c(O)c2)[C@@H](OC(=O)c2cc(O)c(O)c(O)c2)[C@@H]1OC(=O)c1cc(O)c(O)c(O)c1)c1cc(O)c(O)c(O)c1 [Compound 18c, 1,1′-O-2,2′,3,3′,4,4′,6,6′-Tetrakis(3,4,5-trihydroxybenzoyl)-β,β′-D-glucopyranosylisophthalate] | 8.9 ± 5.6 |  |  |  |  |  |  | 11.9 ± 5.2 | 6.7 ± 2.9 | 9.5 ± 7.2 | 11.4 ± 9.2 | 3.3 ± 2.6 | 8.5 ± 3.5
O=C(OC[C@H]1O[C@@H](OC(=O)c2ccc(-c3ccc(C(=O)O[C@@H]4O[C@H](COC(=O)c5cc(O)c(O)c(O)c5)[C@@H](OC(=O)c5cc(O)c(O)c(O)c5)[C@H](OC(=O)c5cc(O)c(O)c(O)c5)[C@H]4OC(=O)c4cc(O)c(O)c(O)c4)cc3)cc2)[C@H](OC(=O)c2cc(O)c(O)c(O)c2)[C@@H](OC(=O)c2cc(O)c(O)c(O)c2)[C@@H]1OC(=O)c1cc(O)c(O)c(O)c1)c1cc(O)c(O)c(O)c1 [Compound 19c, 1,1′-O-2.2′,3,3′,4,4′,6,6′-Tetrakis(3,4,5-trihyroxybenzoyl)-β,β′-D,D′-glucopyranosylbiphenyl-4.4′-diester] | 73.4 ± 58.3 |  |  |  |  |  |  | 50.9 ± 28.0 | 8.0 ± 8.0 | 9.5 ± 6.5 | 24.5 ± 10.7 | 67.6 ± 21.0 | 117.8 ± 44.0
